Structures can show the parent of a compound that is named as a salt. Where two headings read alike, the source gives them in different places.
How the values were obtained:
Assay in all cases: In Vitro Anti-Bacterial Activity Test (MIC, agar dilution)
Format in all cases: cell-based
[1] = test system: Pseudomonas aeruginosa 9027; conditions: Muller-Hinton agar, 37° C., 18 hours, read-out: MIC
How it was run: (§1)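 MIC was determined by agar dilution on Mueller-Hinton agar. Each strain was inoculated at 10^7 C.F.U./ml, and growth was observed after 18 hours at 37° C, with ciprofloxacin as control agent.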

[2] = test system: Klebsiella oxytoca 1082E; conditions: Klebsiella oxytoca 1082E; Muller-Hinton agar, 37° C., 18 hours; read-out: MIC
How it was run: as §1

[3] = test system: Pseudomonas aeruginosa 1771; conditions: Pseudomonas aeruginosa 1771; Muller-Hinton agar, 37° C., 18 hours; read-out: MIC
How it was run: as §1

[4] = test system: Pseudomonas aeruginosa 1592E; conditions: Muller-Hinton agar, 37° C., 18 hours, read-out: MIC
How it was run: as §1

[5] = test system: Staphylococcus aureus 503; conditions: Staphylococcus aureus 503; Muller-Hinton agar, 37° C., 18 hours; read-out: MIC
How it was run: as §1

[6] = test system: Salmonella typhimurium; conditions: Salmonella enterica
How it was run: as §1

[7] = test system: Escherichia coli DC0; conditions: Muller-Hinton agar, 37° C., 18 hours, read-out: MIC
How it was run: as §1

[8] = test system: Staphylococcus aureus 285; conditions: Staphylococcus aureus, 285, 18 h, Staphylococcus aureus 285; Muller-Hinton agar, 37° C., 18 hours; read-out: MIC
How it was run: as §1

[9] = test system: Escherichia coli 1507E; conditions: Muller-Hinton agar, 37° C.
How it was run: as §1

[10] = test system: Pseudomonas aeruginosa 1771M; conditions: Pseudomonas aeruginosa, 1771M, 18 h, Muller-Hinton agar, 37° C.
How it was run: as §1

[11] = test system: Streptococcus pyogenes 308A; conditions: Muller-Hinton agar, 37° C., 18 hours, read-out: MIC
How it was run: as §1

[12] = test system: Klebsiella aerogenes 1522E; conditions: Klebsiella aerogenes, 1522E, 18 h, Klebsiella aerogenes 1522E; Muller-Hinton agar, 37° C., 18 hours; read-out: MIC
How it was run: as §1

[13] = test system: Escherichia coli 078
How it was run: as §1

[14] = test system: Escherichia coli TEM; conditions: Escherichia coli, 18 h, Muller-Hinton agar, 37° C.
How it was run: (§2)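 Strains were inoculated at 10^7 C.F.U./ml onto Mueller-Hinton agar containing serial compound dilutions and incubated 18 hours at 37° C. The minimum inhibitory concentration was read from growth, with ciprofloxacin run as the reference antibacterial.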

[15] = test system: Streptococcus pyogenes 77A
How it was run: as §1

[16] = test system: Streptococcus faecium MD8b; conditions: Enterococcus faecium, Muller-Hinton agar, 37° C., 18 hours, read-out: MIC
How it was run: as §1

[17] = test system: Enterobacter cloacae 1321E
How it was run: as §1

[18] = test system: Enterobacter cloacae P99; conditions: Enterobacter cloacae, P99, 18 h
How it was run: as §2

[19] = test system: Staphylococcus aureus SG511; conditions: Staphylococcus aureus SG511; Muller-Hinton agar, 37° C., 18 hours; read-out: MIC
How it was run: as §1

[20] = test system: Escherichia coli DC2; conditions: Escherichia coli, DC2, 18 h
How it was run: as §1

[21] = Salmonella typhimurium, Muller-Hinton agar, 37° C., 18 hours, read-out: MIC
[22] = Streptococcus pyogenes 77A, Muller-Hinton agar, 37° C., 18 hours, read-out: MIC
[23] = Enterobacter cloacae 1321E, Muller-Hinton agar, 37° C., 18 hours, read-out: MIC
[24] = Streptococcus pyogenes, 77A, 18 h
[25] = Escherichia coli 078, Muller-Hinton agar, 37° C., 18 hours, read-out: MIC

Compound | MIC [1] [µg/mL] | MIC [2] [µg/mL] | MIC [3] [µg/mL] | MIC [4] [µg/mL] | MIC [5] [µg/mL] | MIC [6, 21] [µg/mL] | MIC [7] [µg/mL] | MIC [8] [µg/mL] | MIC ([9]; Escherichia coli, 1507E, 18 h) [µg/mL] | MIC [10] [µg/mL] | MIC [11] [µg/mL] | MIC [12] [µg/mL] | MIC [14] [µg/mL] | MIC [15, 22] [µg/mL] | MIC [16] [µg/mL] | MIC [17, 23] [µg/mL] | MIC [18] [µg/mL] | MIC [19] [µg/mL] | MIC [20] [µg/mL] | MIC [13, 25] [µg/mL] | further results
CNCC1=CCN(c2c(F)cc3c(=O)c(C(=O)CS(C)(=O)=O)cn(C4CC4)c3c2Cl)C1 [Example 46, 1-cyclopropyl-6-fluoro-8-chloro-7-(3-methylaminomethyl-2,5-dihydropyrrol-1-yl)-3-(2-methanesulfonylacetyl)-1,4-dihydro-4-oxoquinoline hydrochloride] | 1.56 | 0.013 | 1.56 | 0.781 | 0.049 | 0.195 | 0.391 | 0.049 | 0.098 | 0.195 | 1.56 | 0.013 | 0.049 | 0.391 | 0.195 | 0.049 | 0.098 | 0.098 | 0.098 |  | MIC ([13]; Escherichia coli, 078, 18 h): 0.025 µg/mL
CC1CN(c2cc3c(cc2F)c(=O)c(C(=O)C[N+](=O)[O-])cn3-c2ccc(F)cc2F)CCN1 (stereo not drawn) [Example 10, 1-(2,4-difluorophenyl)-6-fluoro-7-(3-methylpiperazin-1-yl)-3-(2-nitroacetyl)-1,4-dihydro-4-oxoquinoline hydrochloride] | 3.12 | 0.025 | 3.12 | 1.56 | 0.391 | 0.049 | 1.56 | 0.391 | 0.098 | 1.56 | 1.56 | 1.56 | 0.098 |  | 1.56 | 0.049 | 0.049 | 0.391 | 0.391 |  | MIC ([13]; Escherichia coli, 078, 18 h): 0.049 µg/mL; MIC [15, 24]: 0.781 µg/mL
CCOC(=O)C(C(=O)OCC)C(=O)c1cn(C2CC2)c2cc(N3CCNCC3)c(F)cc2c1=O [Example 18, 1-cyclopropyl-6-fluoro-7-(piperazin-1-yl)-3-(2,2-diethoxycarbonylacetyl)-1,4-dihydro-4-oxoquinoline hydrochloride] | 0.781 | 0.004 | 0.195 | 0.391 | 0.391 |  | 0.195 | 0.391 |  | 0.049 | 3.12 | 0.013 | 0.007 | 0.781 | 0.781 | < 0.002 | < 0.002 | 0.195 | 0.098 | 0.004 | MIC ([6]; TYPHIMURIUM, 18 h): 0.007 µg/mL; MIC ([9]; 18 hours, read-out: MIC): 0.004 µg/mL
CCOC(=O)C(C(N)=O)C(=O)c1cn(C2CC2)c2c(Cl)c(N3CCC(N)C3)c(F)cc2c1=O (stereo not drawn) [Example 52, 1-cyclopropyl-6-fluoro-8-chloro-7-(3-aminopyrrolidin-1-yl)-3-(2-amido-2-ethoxycarbonylacetyl)-1,4-dihydro-4-oxoquinoline hydrochloride] | 0.781 | < 0.002 | 0.391 | 0.391 | 0.025 | 0.013 | 0.049 | 0.025 |  | 0.098 | 0.195 | 0.013 | < 0.002 | 0.391 | 0.391 | < 0.002 | 0.004 | 0.025 | 0.025 |  | MIC ([9]; 18 hours, read-out: MIC): 0.004 µg/mL; MIC ([13]; Escherichia coli, 078, 18 h): 0.007 µg/mL
CN[C@@H]1CCN(c2c(F)cc3c(=O)c(C(=O)C[N+](=O)[O-])cn(C4CC4)c3c2Cl)C1 [Example 61, 1-cyclopropyl-6-fluoro-8-chloro-7-(3-3R-methylaminopyrrolidin-1-yl)-3-(2-nitroacetyl)-1,4-dihydro-4-oxoquinoline hydrochloride] | 0.195 | 0.004 | 0.195 | 0.195 | 0.025 | 0.004 | 0.049 | 0.025 | 0.007 | 0.098 | 0.391 | 0.013 | 0.007 | 0.098 | 0.098 |  | 0.007 | 0.013 | 0.013 | < 0.002 | MIC ([17]; Enterobacter cloacae, 1321E, 18 h): 0.007 µg/mL
CCOC(=O)CC(=O)c1cn(C2CC2)c2c(Cl)c(N3CC[C@@H](N)C3)c(F)cc2c1=O [Example 26, 1-cyclopropyl-6-fluoro-8-chloro-7-(3-3R-aminopyrrolidin-1-yl)-3-(2-ethoxycarbonylacetyl)-1,4-dihydro-4-oxoquinoline hydrochloride] | 0.781 | < 0.002 | 0.781 | 0.781 | 0.098 | 0.007 | 0.195 | 0.098 | 0.025 | 0.098 | 1.56 | 0.049 | 0.013 |  | 0.781 | 0.004 | 0.013 | 0.098 | 0.098 | 0.004 | MIC [15, 24]: 0.781 µg/mL
CN[C@H]1CCN(c2c(F)cc3c(=O)c(C(=O)C[N+](=O)[O-])cn(C4CC4)c3c2OC)C1 [Example 65, 1-cyclopropyl-6-fluoro-8-methoxy-7-(3-3S-methylaminopyrrolidin-1-yl)-3-(2-nitroacetyl)-1,4-dihydro-4-oxoquinoline hydrochloride] | 1.56 | 0.049 | 1.56 | 1.56 | 0.098 | 0.781 | 0.781 | 0.049 | 0.195 | 1.56 | 0.781 | 0.049 | 0.049 |  | 0.781 | 0.013 | 0.013 | 0.049 | 0.195 |  | MIC ([13]; Escherichia coli, 078, 18 h): 0.049 µg/mL; MIC [15, 24]: 0.781 µg/mL
CCOC(=O)C(C(=O)OCC)C(=O)c1cn(C2CC2)c2c(F)c(N3CCC(N)C3)c(F)cc2c1=O (stereo not drawn) [Example 20, 1-cyclopropyl-6,8-difluoro-7-(3-aminopyrrolidin-1-yl)-3-(2,2-diethoxycarbonylacetyl)-1,4-dihydro-4-oxoquinoline hydrochloride] | 0.391 | < 0.002 | 0.195 | 0.195 | 0.025 | < 0.002 | 0.098 | 0.013 | 0.007 | 0.098 | 0.391 | 0.025 | < 0.002 | 0.098 | 0.098 | < 0.002 | < 0.002 | 0.013 | 0.013 | < 0.002 | 
C[C@@H]1CN(c2c(F)c(N)c3c(=O)c(C(=O)C[N+](=O)[O-])cn(C4CC4)c3c2F)C[C@H](C)N1 [Example 14, 1-cyclopropyl-5-amino-6,8-difluoro-7-(3,5-cis-dimethylpiperazin-1-yl)-3-(2-nitroacetyl)-1,4-dihydro-4-oxoquinoline hydrochloride] | 0.781 | < 0.002 | 0.391 | 0.781 | 0.049 | < 0.002 | 0.098 | 0.098 | 0.013 | 0.195 | 1.56 | 0.025 | 0.007 | 0.195 | 0.391 | < 0.002 | 0.007 | 0.098 | 0.049 | < 0.002 | 

Reference: patent publication US5409933A, “Quinoline derivatives and processes for preparing the same” (priority 1993, dated 1995)
